Results taken from PMC10065799, “High-throughput profiling of sequence recognition by tyrosine kinases and SH2 domains using bacterial peptide display” (eLife, 2023).

Target: T1, c-Abl kinase domain (Mus musculus, UniProt P00520)
T1 sequence (P00520 242-493 limits assumed): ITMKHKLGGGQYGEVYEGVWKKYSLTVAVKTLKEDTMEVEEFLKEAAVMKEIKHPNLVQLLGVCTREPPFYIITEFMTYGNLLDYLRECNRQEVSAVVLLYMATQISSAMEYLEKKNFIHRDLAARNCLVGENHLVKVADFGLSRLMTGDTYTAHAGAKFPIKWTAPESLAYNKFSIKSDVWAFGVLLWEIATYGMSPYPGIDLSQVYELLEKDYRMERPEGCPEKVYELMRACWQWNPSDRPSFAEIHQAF
Test: pTyr-Var library bacterial peptide display kinase screen (enrichment scores)
Type: biochemical
Conditions: variant versus reference peptide

## GMAHNYRNRSQ [AASS_Y188_S191R]
  c-Abl difference (mean log2 variant - mean log2 reference): 0.7958
